Measured values from patent US11180462B2, “Microbiocidal oxadiazole derivatives” (SYNGENTA PARTICIPATIONS AG, priority 2015, dated 2021).

How the values were obtained:
[1] = tested on: Glomerella lagenarium (Colletotrichum lagenarium); test: Fungicidal activity against Glomerella lagenarium (Colletotrichum lagenarium) liquid culture / cucumber / preventative (anthracnose); assay type: cell-based; settings: Colletotrichum orbiculare; 20 ppm in the applied formulation; liquid culture (PDB), growth inhibition measured photometrically after 3 to 4 days; compared to untreated control; read-out: disease control
Outline: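 Photometric read-out of fungal growth after 2–7 days, expressed as percent antifungal activity versus untreated check. Cryo-stored conidia in PDB; compound at 20 ppm; dark, 24 °C, 96% RH.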

[2] = tested on: Puccinia recondita f. Sp. Tritici; test: Fungicidal activity against Puccinia recondita f. sp. tritici / wheat / leaf disc preventative (brown rust); assay type: in vivo; settings: foliar, 200 ppm in the applied formulation, wheat leaf segments, preventative, compared to untreated control leaf disks, read-out: disease control
Outline: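 Preventative leaf-segment test, wheat cv. Kanzler on water agar. Spray compound at 200 ppm, inoculate with spores 1 day later; 19° C., 75% rh, 12/12 h light. Read-out: % disease control vs untreated, 7 to 9 days after application.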

[3] = tested on: Puccinia recondita f. Sp. Tritici; test: Fungicidal activity against Puccinia recondita f. sp. tritici / wheat / leaf disc curative (brown rust); assay type: in vivo; settings: foliar, 24 h, 200 ppm in the applied formulation, wheat leaf segments, curative (applied 1 day after inoculation), compared to untreated control leaf disks, read-out: disease control
Outline: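 Curative leaf-segment test: compound diluted in water applied 1 day after spore inoculation of cv. Kanzler wheat segments on agar. Conditions 19° C, 75% RH, 12 h/12 h light cycle. Read-out: % disease control relative to untreated check, 6 to 8 days after application.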

[4] = tested on: Phakopsora Pachyrhizi; test: Fungicidal activity against Phakopsora pachyrhizi / soybean / leaf disc preventative (Asian soybean rust); assay type: in vivo; settings: foliar, 200 ppm in the applied formulation, soybean leaf disks, compared to untreated control leaf disks, read-out: disease control
Outline: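 Preventative soybean leaf-disc test: discs on water agar sprayed with diluted formulated compound, inoculated one day later with spores on the lower surface. Held 24–36 h dark at 20°C, 75% rh, then 12 h light/day; percent disease control versus untreated discs scored 12–14 days after application.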

CC(=O)CC(C)C(=O)N(Cc1ccc(-c2noc(C(F)(F)F)n2)cc1)C1CC1 (stereo not shown) [Compound 1.95, N-cyclopropyl-2-methyl-4-oxo-N-[[4-[5-(trifluoromethyl)-1,2,4-oxadiazol-3-yl]phenyl]methyl]-pentanamide]
≥ 80%: inhibition of growth at 20 ppm [1] | pest or weed control at 200 ppm [2] | pest or weed control at 200 ppm [3] | pest or weed control at 200 ppm [4]

CCCC(=O)N(Cc1ccc(-c2noc(C(F)(F)F)n2)cc1)C1CC1 [Compound 1.97, N-cyclopropyl-N-[[4-[5-(trifluoromethyl)-1,2,4-oxadiazol-3-yl]phenyl]methyl]-butanamide]
≥ 80%: inhibition of growth at 20 ppm [1] | pest or weed control at 200 ppm [2] | pest or weed control at 200 ppm [3] | pest or weed control at 200 ppm [4]

O=C(CC1CC1)N(Cc1ccc(-c2noc(C(F)(F)F)n2)cc1)C1CC1 [Compound 1.99, N,2-dicyclopropyl-N-[[4-[5-(trifluoromethyl)-1,2,4-oxadiazol-3-yl]phenyl]methyl]-acetamide]
≥ 80%: inhibition of growth at 20 ppm [1] | pest or weed control at 200 ppm [2] | pest or weed control at 200 ppm [3] | pest or weed control at 200 ppm [4]

O=C(C1CCCC1)N(Cc1ccc(-c2noc(C(F)(F)F)n2)cc1)C1CC1 [Compound 1.100, N-cyclopropyl-N-[[4-[5-(trifIuoromethyl)-1,2,4-oxadiazol-3-yl]phenyl]methyl]-cyclopentane-carboxamide]
≥ 80%: inhibition of growth at 20 ppm [1] | pest or weed control at 200 ppm [2] | pest or weed control at 200 ppm [3] | pest or weed control at 200 ppm [4]

O=C(CCC(F)(F)F)N(Cc1ccc(-c2noc(C(F)(F)F)n2)cc1)C1CC1 [Compound 1.101, N-cyclopropyl-4,4,4-trifluoro-N-[[4-[5-(trifluoromethyl)-1,2,4-oxadiazol-3-yl]phenyl]methyl]-butanamide]
≥ 80%: inhibition of growth at 20 ppm [1] | pest or weed control at 200 ppm [2] | pest or weed control at 200 ppm [3] | pest or weed control at 200 ppm [4]

O=C(Cc1cccnc1)N(Cc1ccc(-c2noc(C(F)(F)F)n2)cc1)C1CC1 [Compound 1.102, N-cyclopropyl-2-(3-pyridyl)-N-[[4-[5-(trifluoromethyl)-1,2,4-oxadiazol-3-yl]phenyl]methyl]-acetamide]
≥ 80%: inhibition of growth at 20 ppm [1] | pest or weed control at 200 ppm [2] | pest or weed control at 200 ppm [3] | pest or weed control at 200 ppm [4]

O=C(C1CCOC1)N(Cc1ccc(-c2noc(C(F)(F)F)n2)cc1)C1CC1 (stereo not shown) [Compound 1.103, N-cyclopropyl-N-[[4-[5-(trifluoromethyl)-1,2,4-oxadiazol-3-yl]phenyl]methyl]-tetrahydrofuran-3-carboxamide]
≥ 80%: inhibition of growth at 20 ppm [1] | pest or weed control at 200 ppm [2] | pest or weed control at 200 ppm [3] | pest or weed control at 200 ppm [4]

O=C(C1CSC1)N(Cc1ccc(-c2noc(C(F)(F)F)n2)cc1)C1CC1 [Compound 1.104, N-cyclopropyl-N-[[4-[5-(trifluoromethyl)-1,2,4-oxadiazol-3-yl]phenyl]methyl]-thietane-3-carboxamide]
≥ 80%: inhibition of growth at 20 ppm [1] | pest or weed control at 200 ppm [2] | pest or weed control at 200 ppm [3] | pest or weed control at 200 ppm [4]

COCCC(=O)N(Cc1ccc(-c2noc(C(F)(F)F)n2)cc1)C1CC1 [Compound 1.106, N-cyclopropyl-3-methoxy-N-[[4-[5-(trifluoromethyl)-1,2,4-oxadiazol-3-yl]phenyl]methyl]-propanamide]
≥ 80%: inhibition of growth at 20 ppm [1] | pest or weed control at 200 ppm [2] | pest or weed control at 200 ppm [3] | pest or weed control at 200 ppm [4]

CC(C)CC(=O)N(Cc1ccc(-c2noc(C(F)(F)F)n2)cc1)C1CC1 [Compound 1.109, N-cyclopropyl-3-methyl-N-[[4-[5-(trifluoromethyl)-1,2,4-oxadiazol-3-yl]phenyl]methyl]-butanamide]
≥ 80%: inhibition of growth at 20 ppm [1] | pest or weed control at 200 ppm [2] | pest or weed control at 200 ppm [3] | pest or weed control at 200 ppm [4]

CC(C)(CCl)C(=O)N(Cc1ccc(-c2noc(C(F)(F)F)n2)cc1)C1CC1 [Compound 1.110, 3-chloro-N-cyclopropyl-2,2-dimethyl-N-[[4-[5-(trifluoromethyl)-1,2,4-oxadiazol-3-yl]phenyl]methyl]-propanamide]
≥ 80%: inhibition of growth at 20 ppm [1] | pest or weed control at 200 ppm [2] | pest or weed control at 200 ppm [3] | pest or weed control at 200 ppm [4]

O=C(CC(F)(F)F)N(Cc1ccc(-c2noc(C(F)(F)F)n2)cc1)C1CC1 [Compound 1.111, N-cyclopropyl-3,3,3-trifluoro-N-[[4-[5-(trifluoromethyl)-1,2,4-oxadiazol-3-yl]phenyl]methyl]-propanamide]
≥ 80%: inhibition of growth at 20 ppm [1] | pest or weed control at 200 ppm [2] | pest or weed control at 200 ppm [3] | pest or weed control at 200 ppm [4]

O=C(C1CCC1)N(Cc1ccc(-c2noc(C(F)(F)F)n2)cc1)C1CC1 [Compound 1.112, N-cyclopropyl-N-[[4-[5-(trifluoromethyl)-1,2.4-oxadiazol-3-yl]phenyl]methyl]-cyclobutane-carboxamide]
≥ 80%: inhibition of growth at 20 ppm [1] | pest or weed control at 200 ppm [2] | pest or weed control at 200 ppm [3] | pest or weed control at 200 ppm [4]

CC=CCC(=O)N(Cc1ccc(-c2noc(C(F)(F)F)n2)cc1)C1CC1 [Compound 1.114, N-cyclopropyl-N-[[4-[5-(trifluoromethyl)-1,2,4-oxadiazol-3-yl]phenyl]methyl]pent-3-enamide]
≥ 80%: inhibition of growth at 20 ppm [1] | pest or weed control at 200 ppm [2] | pest or weed control at 200 ppm [3] | pest or weed control at 200 ppm [4]

CC1CC1C(=O)N(Cc1ccc(-c2noc(C(F)(F)F)n2)cc1)C1CC1 (stereo not shown) [Compound 1.115, N-cyclopropyl-2-methyl-N-[[4-[5-(trifluoromethyl)-1,2,4-oxadiazol-3-yl]phenyl]methyl]-cyclopropane-carboxamide]
≥ 80%: inhibition of growth at 20 ppm [1] | pest or weed control at 200 ppm [2] | pest or weed control at 200 ppm [3] | pest or weed control at 200 ppm [4]

CC(C)(C)C(=O)N(Cc1ccc(-c2noc(C(F)(F)F)n2)cc1)C1CC1 [Compound 1.117, N-cyclopropyl-2,2-dimethyl-N-[[4-[5-(trifluoromethyl)-1,2,4-oxadiazol-3-yl]phenyl]methyl]-propanamide]
≥ 80%: inhibition of growth at 20 ppm [1] | pest or weed control at 200 ppm [2] | pest or weed control at 200 ppm [3] | pest or weed control at 200 ppm [4]

CC1(C(=O)N(Cc2ccc(-c3noc(C(F)(F)F)n3)cc2)C2CC2)CC1 [Compound 1.118, N-cyclopropyl-1-methyl-N-[[4-[5-(trifluoromethyl)-1,2,4-oxadiazol-3-yl]phenyl]methyl]-cyclopropane-carboxamide]
≥ 80%: inhibition of growth at 20 ppm [1] | pest or weed control at 200 ppm [2] | pest or weed control at 200 ppm [3] | pest or weed control at 200 ppm [4]

CCC(=O)N(Cc1ccc(-c2noc(C(F)(F)F)n2)cc1)C1CC1 [Compound 1.119, N-cyclopropyl-N-[[4-[5-(trifluoromethyl)-1,2,4-oxadiazol-3-yl]phenyl]methyl]-propanamide]
≥ 80%: inhibition of growth at 20 ppm [1] | pest or weed control at 200 ppm [2] | pest or weed control at 200 ppm [3] | pest or weed control at 200 ppm [4]

O=C(Cc1ccccc1)N(Cc1ccc(-c2noc(C(F)(F)F)n2)cc1)C1CC1 [Compound 1.121, N-cyclopropyl-2-phenyl-N-[[4-[5-(trifluoromethyl)-1,2,4-oxadiazol-3-yl]phenyl]methyl]-acetamide]
≥ 80%: inhibition of growth at 20 ppm [1] | pest or weed control at 200 ppm [2] | pest or weed control at 200 ppm [3] | pest or weed control at 200 ppm [4]

C=C(C)C(=O)N(Cc1ccc(-c2noc(C(F)(F)F)n2)cc1)C1CC1 [Compound 1.122, N-cyclopropyl-2-methyl-N-[[4-[5-(trifluoromethyl)-1,2,4-oxadiazol-3-yl]phenyl]methyl]prop-2-enamide]
≥ 80%: inhibition of growth at 20 ppm [1] | pest or weed control at 200 ppm [2] | pest or weed control at 200 ppm [3] | pest or weed control at 200 ppm [4]

O=C(C1CCSCC1)N(Cc1ccc(-c2noc(C(F)(F)F)n2)cc1)C1CC1 [Compound 1.123, N-cyclopropyl-N-[[4-[5-(trifluoromethyl)-1,2,4-oxadiazol-3-yl]phenyl]methyl]-tetrahydrothiopyran-4-carboxamide]
≥ 80%: inhibition of growth at 20 ppm [1] | pest or weed control at 200 ppm [2] | pest or weed control at 200 ppm [3] | pest or weed control at 200 ppm [4]

CC1(C)CC1C(=O)N(Cc1ccc(-c2noc(C(F)(F)F)n2)cc1)C1CC1 (stereo not shown) [Compound 1.124, N-cyclopropyl-2,2-dimethyl-N-[[4-[5-(trifluoromethyl)-1,2,4-oxadiazol-3-yl]phenyl]methyl]-cyclopropane-carboxamide]
≥ 80%: inhibition of growth at 20 ppm [1] | pest or weed control at 200 ppm [2] | pest or weed control at 200 ppm [3] | pest or weed control at 200 ppm [4]
